Reference: patent US20110275673A1, “INHIBITORS OF SPHINGOSINE KINASE 1” (priority 2008, published 2011)
Where a name gives a salt, the structure may show the parent alone.

Each compound was assayed against T1, SPHK-1 (Homo sapiens, UniProt Q9NYA1) (assay: Reporter Assay: sphingosine kinase conversion of fluorescein-labeled sphingosine, read on Lab Chip 3000). Conditions: 2 μM Fl-sphingosine, 25 μM ATP, 300 ng/ml SK1, 1 hour at room temperature; from percent conversion of substrate to product; read-out: SPHK-1 IC50 (n =).
T1 construct: purchased BPS Bioscience
T1 sequence (Q9NYA1 whole entry): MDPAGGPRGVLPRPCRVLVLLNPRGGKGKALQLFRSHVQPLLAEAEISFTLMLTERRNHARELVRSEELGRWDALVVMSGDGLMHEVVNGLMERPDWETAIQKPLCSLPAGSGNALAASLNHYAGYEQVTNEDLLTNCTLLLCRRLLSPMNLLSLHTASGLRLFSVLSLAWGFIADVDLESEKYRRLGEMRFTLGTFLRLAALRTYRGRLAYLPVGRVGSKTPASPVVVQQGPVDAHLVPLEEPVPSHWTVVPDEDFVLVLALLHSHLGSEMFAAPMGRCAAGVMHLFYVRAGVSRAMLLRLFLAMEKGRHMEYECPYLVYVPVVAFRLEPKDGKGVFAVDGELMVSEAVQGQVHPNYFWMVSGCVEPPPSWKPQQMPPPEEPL
Type: biochemical
Procedure: Sphingosine kinase is a 49 kDa enzyme that catalyzes the formation of sphingosine-1-phosphate (S-1-P) from sphingosine.
Fluorescein labeled sphingosine was obtained from Echelon Biosciences (S-100F). Buffer reagents (1 M Hepes, 10 triton x-100, 100% glycerol, dithiothreitol 1 M MgCl2, ATP, 500 mM EDTA and DMSO) were purchased from Sigma. Coating reagent (CR-3), was obtained from Caliper Life Sciences.
0.05% Triton X-100, 2.5% glycerol, 0.1% CR-3, and 0,6% DMSO. Termination butler included 100 mM Hepes (pH 7.5), 40 mM EDTA, 0.05% Triton X-100, 2.5% glycerol, 0.3% CR-3, and 0.6% DMSO.
All assay components were made in reaction buffer. […] The assaylvas allowed to incubate at room temperature sealed and protected from light for 1 hour.
After 1 hour, 10 μl of termination buffer was added to terminate, the reaction, and the plate was read on a Lab Chip 3000. The plate was read for one cycle. The Lab Chip separated substrate and product based on charge.
Results were calculated based on percent conversion of substrate to product using the following formula: […]
Percent inhibition and IC50's for compounds of the invention were determined using the percent conversion values obtained horn the Lab Chip.

IC50 [µM] | Structure (SMILES)
1.5 | O=C(Nc1ccc(CCCOc2ccc(F)cc2)cc1)[C@H]1NCC[C@@H]1O [Example 23, (2S,3S)-N-(4-(3-(4-Fluorophenoxy)propyl)phenyl)-3-hydroxy-pyrrolidine-2-carboxamide]
0.19 | O=C(Nc1ccc(CCCCCOc2ccc(F)cc2)cc1)[C@H]1NCC[C@@H]1O [Example 24, (2S,3S)-N-(4-(5-(4-Fluorophenoxy)pentyl)phenyl)-3-hydroxy-pyrrolidine-2-carboxamide]
0.37 | O=C(Nc1ccc(CCCCCCCOc2ccc(F)cc2)cc1)[C@H]1NCC[C@@H]1O [Example 25, (2S,3S)-N-(4-(7-(4-Fluorophenoxy)heptyl)phenyl)-3-hydroxy-pyrrolidine-2-carboxamide]
3 | CCCCCCCCc1ccc(NC(=O)[C@H]2NCC[C@@H]2O)cn1 [Example 26, (2S,3S)-3-Hydroxy-N-(6-octylpyridin-3-yl) pyrrolidine-2-carboxamide]
0.19 | CCCCCCCCc1ccc([C@H](C)NC(=O)[C@H]2NCC[C@@H]2O)cc1 [Example 27, (2S,3S)-3-Hydroxy-N-((S)-1-(4-octylphenyl)ethyl) pyrrolidine-2-carboxamide]
4.7 | O=C(NCc1ccc(CCCCCOc2ccc(F)cc2)cc1)[C@H]1NCC[C@@H]1O [Example 28, (2S,3S)-N-(4-(5-(4-Fluorophenoxy)pentyl)benzyl)-3-hydroxy-pyrrolidine-2-carboxamide]
0.87 | CCCCCCCCc1ccc(NC(=O)[C@@H](N)[C@@H](C)O)cc1 [Example 29, (2S,3R)-2-Amino-3-hydroxy-N-(4-octylphenyl) butanamide]
2.1 | CCCCCCCCc1ccc(NC(=O)[C@H](N)[C@H](C)O)cc1 [Example 30, (2R,3S)-2-Amino-3-hydroxy-N-(4-octylphenyl) butanamide]
1.6 | CCCCCCCCc1ccc(NC(=O)[C@H](N)[C@@H](C)O)cc1 [Example 31, (2R,3R)-2-Amino-3-hydroxy-N-(4-octylphenyl) butanamide]
1.1 | CCCCCCCCc1ccc(NC(=O)[C@@H](N)[C@H](C)O)cc1 [Example 32, (2S,3S)-2-Amino-3-hydroxy-N-(4-octylphenyl) butanamide]
6.1 | CCCCC(=O)CCCCCc1ccc(NC(=O)[C@@H](N)[C@@H](C)O)cc1 [Example 33, (2S,3R)-2-amino-3-hydroxy-N-(4-(6-oxodecyl)phenyl) butanamide]
6.9 | CCCCCCC(O)CCCc1ccc(NC(=O)[C@@H](N)[C@@H](C)O)cc1 (stereo partly drawn) [Example 35, (2S,3R)-2-amino-3-hydroxy-N-(4-(4-hydroxydecyl)phenyl) butanamide]
2.1 | CCCCCCCCc1ccc(CNC(=O)[C@H]2NCC[C@@H]2O)cc1 [Example 36, (2S,3S)-3-hydroxy-N-(4-octylbenzyl) pyrrolidine-2-carboxamide]
0.47 | CCCCCCCc1ccc(CNC(=O)[C@H]2NCC[C@@H]2O)cc1 [Example 37, (2S,3S)-N-(4-heptylbenzyl)-3-hydroxy-pyrrolidine-2-carboxamide]
0.086 | CCCCC(=O)CCCCCc1ccc(NC(=O)[C@H]2NCC[C@@H]2O)cc1 [Example 38, (2S,3S)-3-hydroxy-N-(4-(6-oxodecyl)phenyl) pyrrolidine-2-carboxamide]
0.11 | CCCCCCSCc1ccc(NC(=O)[C@H]2NCC[C@@H]2O)cc1 [Example 39, (2S,3S)-N-(4-(hexylthiomethyl)phenyl)-3-hydroxy-pyrrolidine-2-carboxamide]
0.007 | CCCCCCSCCc1ccc(NC(=O)[C@H]2NCC[C@@H]2O)cc1 [Example 40, (2S,3S)-N-(4-(2-(hexylthio)ethyl)phenyl)-3-hydroxy-pyrrolidine-2-carboxamide]
0.002 | CCCCCCSCCCCc1ccc(NC(=O)[C@H]2NCC[C@@H]2O)cc1 [Example 41, (2S,3S)-N-(4-(4-(hexylthio)butyl)phenyl)-3-hydroxy-pyrrolidine-2-carboxamide]
0.12 | CCCCCCCC(O)CCCc1ccc(NC(=O)[C@H]2NCC[C@@H]2O)cc1 (stereo partly drawn) [Example 42, (2S,3S)-3-hydroxy-N-(4-(4-hydroxy-undecyl)phenyl) pyrrolidine-2-carboxamide]
0.18 | CCCCCCCSCc1ccc(CNC(=O)[C@H]2NCC[C@@H]2O)cc1 [Example 43, (2S,3S)-N-(4-(heptylthio-methyl)benzyl)-3-hydroxy-pyrrolidine-2-carboxamide]
6.5 | CCCCCCCCc1ccc(CCNC(=O)[C@H]2NCC[C@@H]2O)cc1 [Example 44, (2S,3S)-3-hydroxy-N-(4-octylphenethyl) pyrrolidine-2-carboxamide]

IC50 [µM] | Structure (SMILES)
> 10 | CCCCCCS(=O)(=O)Cc1ccc(NC(=O)[C@H]2NCC[C@@H]2O)cc1 [Example 46, (2S,3S)-N-(4-(hexylsulfonyl-methyl)phenyl)-3-hydroxy-pyrrolidine-2-carboxamide]
> 1 | CCCCCCCCc1ccc(NC(=O)[C@H]([C@H](C)O)N(CCC)CCC)cc1 [Example 47, (2S,3S)-2-(dipropyl-amino)-3-hydroxy-N-(4-octylphenyl) butanamide]
> 1 | CCCCCCCCc1ccc(NC(=O)[C@@H](NCC2CCCCC2)[C@H](C)O)cc1 [Example 48, (2S,3S)-2-(cyclohexyl-methyl-amino)-3-hydroxy-N-(4-octylphenyl) butanamide]
> 1 | CCCCCCCCc1ccc(NC(=O)[C@H]([C@H](C)O)N(Cc2ccccc2)Cc2ccccc2)cc1 [Example 49, (2S,3S)-2-(dibenzyl-amino)-3-hydroxy-N-(4-octylphenyl) butanamide]
0.95 | O=C(Nc1ccc(CCCC2CCCCC2)cc1)[C@H]1NCC[C@@H]1O [Example 50, (2S,3S)-N-(4-(3-cyclohexyl-propyl)phenyl)-3-hydroxy-pyrrolidine-2-carboxamide]
2.8 | CCCCCCCCc1ccc(NC(=O)[C@H](CO)NC)cc1 [Example 51, (S)-3-Hydroxy-2-(methylamino)-N-(4-octylphenyl) propanamide]
4 | CCCCCCCCc1ccc(NC(=O)[C@@H](N)CCCCO)cc1 [Example 52, (S)-2-Amino-6-hydroxy-N-(4-octylphenyl) hexanamide]
3.6 | CCCCCCCCc1ccc(O)c(NC(=O)[C@H]2NCC[C@@H]2O)c1 [Example 58, hydrochloride]
1.1 | CCCCCCCCc1ccc(-c2ccc(NC(=O)[C@@H](N)[C@@H](C)O)cc2)cc1 [Example 59, (2S,3R)-2-Amino-3-hydroxy-N-(4′-octylbiphenyl-4-yl)butanamide]
2.3 | CCCCCCCCc1ccc(-c2ccc(NC[C@@H](N)[C@@H](C)O)cc2)cc1 [Example 60, (2R,3R)-3-Amino-4-(4′-octylbiphenyl-4-ylamino)butan-2-ol]
6.9 | CCCCCCCc1nc(-c2ccc3c(c2)CC[C@H]3NC(=O)[C@H]2NCC[C@@H]2O)no1 [Example 61]
0.06 | CCCCCCCc1nc(-c2ccc3c(c2)CC[C@@H]3NC(=O)[C@H]2NCC[C@@H]2O)no1 [Example 62, (2S,3S)—N—((S)-5-(5-heptyl-1,2,3-oxadiazol-3-yl)-2,3-dihydro-1H-inden-1-yl)-3-hydroxypyrrolidine-2-carboxamide]
2.1 | Cn1nc(-c2ccc(CNC(=O)[C@H]3NCC[C@@H]3O)cc2)nc1C1CCCCC1 [Example 63, (2S,3S)—N-(4-(5-Cyclohexyl-1-methyl-1H-1,2,4-triazol-3-yl)benzyl)-3-hydroxypyrrolidine-2-carboxamide]
1.6 | O=C(NCc1ccc(-n2cc(CCc3ccccc3)nn2)cc1)[C@H]1NCC[C@@H]1O [Example 65, (2S,3S)-3-Hydroxy-N-(4-(4-phenethyl-1H-1,2,3-triazol-1-yl)benzyl)pyrrolidine-2-carboxamide]
0.14 | CC[C@H](NC(=O)[C@H]1NCC[C@@H]1O)c1ccc(-n2cc(CCc3ccccc3)nn2)cc1 [Example 66, (2S,3S)-3-Hydroxy-N—((S)-1-(4-(4-phenethyl-1H-1,2,3-triazol-1-yl)phenyl)propyl)pyrrolidine-2-carboxamide]
0.29 | O=C(NCc1ccc(-n2cc(CCC3CCCCC3)nn2)cc1)[C@H]1NCC[C@@H]1O [Example 67, (2S,3S)-(4-(4-(2-Cyclohexylethyl)-1H-1,2,3-triazol-1-yl)benzyl)-3-hydroxypyrrolidine-2-carboxamide]
7.3 | O=C(NCc1ccc(-n2cc(CCc3ccc(F)cc3)nn2)cc1)[C@H]1NCC[C@@H]1O [Example 68, (2S,3S)—N-(4-(4-(4-Fluorophenethyl)-1H-1,2,3-triazol-1-yl)benzyl)-3-hydroxypyrrolidine-2-carboxamide]
0.065 | O=C(NCc1ccc(-n2cc(CCc3ccccc3)cn2)cc1)[C@H]1NCC[C@@H]1O [Example 69, (2S,3S)-3-Hydroxy-N-(4-(4-phenethyl-1H-pyrazol-1-yl)benzyl)pyrrolidine-2-carboxamide]
0.22 | CCCCCCCc1ccc(-c2noc(CNC(=O)[C@H]3NCC[C@@H]3O)n2)cc1 [Example 77, (2S,3S)—N-((3-(4-Heptylphenyl)-1,2,4-oxadiazol-5-yl)methyl)-3-hydroxypyrrolidine-2-carboxamide]
4.4 | CC(C)Cc1ccc(-c2nc(-c3ccc(CNC(=O)[C@H]4NCC[C@@H]4O)cc3)no2)cc1 [Example 78, (2S,3S)-3-Hydroxy-N-(4-(5-(4-isobutylphenyl)-1,2,4-oxadiazol-3-yl)benzyl)pyrrolidine-2-carboxamide]
